Laboratory results from US20240091366A1, “NOVEL ACID-SENSITIVE APTAMER TRIPTOLIDE CONJUGATE AND APPLICATIONS” (priority 2022, published 2024).
Values joined by “and” are separate entries in the source; they are usually repeats but may differ in a detail not shown here. Equal values may be shown once.

Key:
[1] = test system: human embryonic kidney cells HEK293; experiment: MTT assay, cytotoxicity on normal cells; assay type: cell-based; settings: for cell proliferation inhibition rate: 48 h, samples 1-3
Protocol: (§1) The same materials as those in Part II above are not repeated here, in addition to the following: human normal hepatocytes LO2, human embryonic kidney cells HEK293 were purchased from the Shanghai Cell Bank of the Chinese Academy of Sciences and preserved in our laboratory.
(§2) Take the […] LO2 and HEK293 cell lines from the liquid nitrogen tank, place them in a 37° C. water bath, wait for the frozen cells to melt into cell suspension, centrifuge the cells at 1000 r/min for 3 min, discard the supernatant, add 1 ml of fresh complete medium containing 10% fetal bovine serum and 1% double antibody to mix the cells, then add 5 ml of medium, gently and repeatedly blowing the cells with a pipette gun to make them mix well. Then add 5 ml of medium, blow the cells gently and repeatedly with a pipette gun to mix them well, and finally transfer the cell suspension to a […] and label the cell name, cell number, date of resuscitation and the operator's name, and place it in a cell culture incubator for cultivation. (HEK293 cell line was cultured with DMEM medium, LO2 cell line was cultured with RPMI1640 medium)
(§3) Take LO2 and HEK293 cells with good growth status, remove the medium, add 1 ml of sterile PBS to wash, add 1.5 ml of trypsin to digest the cells, about 2 min later the cells become round and fall off, add 1.5 ml of medium to terminate the digestion, transfer it to centrifugal tube, centrifuge at 1000 r/min for 3 min, discard the supernatant, add 1 ml of fresh medium to resuspend, then add fresh medium for 1:3 distribution to other culture dishes, and label the date of transmission and the number of generations. Place in the cell culture incubator for cultivation.
(§4) Take LO2 and HEK293 cells with good growth status, by the same operation as the cell passaging experiment, after cell resuspension, cell counting with hemocyte counting plate, with 3000 cells/well, plant in 96-well plate, after 24 h of cell culture, remove the original medium, add medium containing different concentrations of drugs and continue to cultivate for 48 hours. After 24 h of cell culture, the original medium was removed and the medium containing different concentrations of drugs was added to continue the culture for 48 hours. […] The above steps were repeated three times.

[2] = test system: human normal hepatocytes LO2; experiment: MTT assay, cytotoxicity on normal cells; assay type: cell-based; settings: for cell proliferation inhibition rate: 48 h, samples 1-3
Protocol: as §1, §2, §3, §4

[3] = test system: colon cancer cells HCT116; experiment: In vivo antitumor activity, colon cancer xenograft in nude mice; set-up: species or system mouse; Tumor weight: unit not given here; settings: HCT116 model, once every 2 days, 8 doses
Excerpt: (§5) The following are the in vivo activity studies conducted in different tumor-bearing mice:
(§6) A PBS negative control group was set up.

[4] = test system: breast cancer cells MDA-MB-231; experiment: In vivo antitumor activity, breast cancer xenograft in nude mice; set-up: species or system mouse; Tumor weight: unit not given here; settings: MDA-MB-231 model, once every 2 days, 8 doses
Excerpt: as §5
The materials used in the experiments were the same as those tested in 5.1 Colon cancer cell lines, differing only in the tumor strains.
as §6

[5] = test system: lung cancer cell line A549; experiment: In vivo antitumor activity, lung cancer xenograft in nude mice; set-up: species or system mouse; Tumor weight: unit not given here; settings: A549 model, once every 2 days, 8 doses
Excerpt: as §5, §6

[6] = Body weight during administration, breast cancer model; settings: MDA-MB-231 model, during 8 times of administration
Protocol: (§7) Specific experimental protocol: Female nude mice were reared for 6-7 weeks under standard environment, breast cancer cells MDA-MB-231 were suspended in serum-free medium, and each mouse was inoculated with 6*10^6 tumor cells. When the tumor volume reached 50-100 mm^3, the mice were randomly divided into 4 groups, and were injected with aptamer triptolide conjugate, triptolide, and aptamer by tail vein, respectively, 12 mice in each group. A PBS negative control group was set up. […] The drugs were administered once every 2 days for 8 consecutive doses, and the experiment was ended 24 hours after the last dose. At the end of the experiment, the animals were executed by breaking the cervical vertebrae, and the tumors were stripped and weighed to calculate the tumor growth inhibition rate of the drug. The t-test was used to compare the tumor weight, tumor volume, RTV and other indexes of the animals in each group.

[7] = Body weight during administration, lung cancer model; settings: A549 model, during 8 times of administration
Protocol: as §7, with “Experimental” for “Specific experimental”, “lung” for “breast”, “cell line A549” for “cells MDA-MB-231”

AS1411: nucleolin aptamer, single-stranded oligonucleotide, SEQ ID NO: 1 GGTGGTGGTGGTTGTGGTGGTGGTGG
inhibitory effect on normal cells ([1]; HEK293): no significant inhibitory effect
cell proliferation inhibition rate ([1]; HEK293, 6.3 nM, 0.0063 µM): 1.4844 and 1.0633 and 2.0955
cell proliferation inhibition rate ([1]; HEK293, 12.5 nM, 0.0125 µM): 2.3262 and 2.9846 and 3.9285
cell proliferation inhibition rate ([1]; HEK293, 25.0 nM, 0.025 µM): 4.6088 and 4.6251 and 5.5956
cell proliferation inhibition rate ([1]; HEK293, 50.0 nM, 0.05 µM): 5.9341 and 4.5183 and 7.0200
cell proliferation inhibition rate ([1]; HEK293, 100.0 nM, 0.1 µM): 9.5603 and 9.9858 and 6.6667
cell proliferation inhibition rate ([1]; HEK293, 200.0 nM, 0.2 µM): 13.0496 and 11.5603 and 7.0200
inhibitory effect on normal cells ([2]; LO2): no significant inhibitory effect
cell proliferation inhibition rate ([2]; LO2, 6.3 nM, 0.0063 µM): 2.1198 and 1.5844 and 2.2503
cell proliferation inhibition rate ([2]; LO2, 12.5 nM, 0.0125 µM): 3.1924 and 2.7446 and 2.0042
cell proliferation inhibition rate ([2]; LO2, 25.0 nM, 0.025 µM): 4.5962 and 5.2695 and 5.1506
cell proliferation inhibition rate ([2]; LO2, 50.0 nM, 0.05 µM): 7.3070 and 6.4174 and 7.0396
cell proliferation inhibition rate ([2]; LO2, 100.0 nM, 0.1 µM): 7.6842 and 6.8369 and 7.5344
cell proliferation inhibition rate ([2]; LO2, 200.0 nM, 0.2 µM): 8.3084 and 8.0987 and 13.5426
RTV ([3]; 10 μM 100 μL tail vein): 33.13 ± 0.51
T/C (%) ([3]; 10 μM 100 μL tail vein): 93.19%
Tumor inhibition rate (%) ([3]; 10 μM 100 μL tail vein): 6.45%
Tumor weight ([3]; 10 μM 100 μL tail vein): 2.92 ± 0.33
RTV ([3]; 30 μM 100 μL tail vein): 28.56 ± 0.23
T/C (%) ([3]; 30 μM 100 μL tail vein): 80.34%
Tumor inhibition rate (%) ([3]; 30 μM 100 μL tail vein): 12.91%
Tumor weight ([3]; 30 μM 100 μL tail vein): 2.74 ± 0.15
RTV ([3]; 50 μM 100 μL tail vein): 26.32 ± 0.15
T/C (%) ([3]; 50 μM 100 μL tail vein): 74.04%
Tumor inhibition rate (%) ([3]; 50 μM 100 μL tail vein): 16.12%
Tumor weight ([3]; 50 μM 100 μL tail vein): 2.66 ± 0.14
RTV ([4]; 10 μM tail vein): 39.29 ± 16
T/C (%) ([4]; 10 μM tail vein): 94.79%
Tumor inhibition rate (%) ([4]; 10 μM tail vein): 7.00%
Tumor weight ([4]; 10 μM tail vein): 3.19 ± 0.27
RTV ([4]; 30 μM tail vein): 37.55 ± 34
T/C (%) ([4]; 30 μM tail vein): 90.59%
Tumor inhibition rate (%) ([4]; 30 μM tail vein): 14.87%
Tumor weight ([4]; 30 μM tail vein): 2.92 ± 0.39
RTV ([4]; 50 μM tail vein): 35.19 ± 38
T/C (%) ([4]; 50 μM tail vein): 84.90%
Tumor inhibition rate (%) ([4]; 50 μM tail vein): 18.95%
Tumor weight ([4]; 50 μM tail vein): 2.78 ± 0.41
RTV ([5]; 10 μM tail vein): 34.57 ± 0.18
T/C (%) ([5]; 10 μM tail vein): 89.93%
Tumor inhibition rate (%) ([5]; 10 μM tail vein): 6.06%
Tumor weight ([5]; 10 μM tail vein): 3.16 ± 0.13
RTV ([5]; 30 μM tail vein): 31.09 ± 0.27
T/C (%) ([5]; 30 μM tail vein): 75.76%
Tumor inhibition rate (%) ([5]; 30 μM tail vein): 15.15%
Tumor weight ([5]; 30 μM tail vein): 2.88 ± 0.26
RTV ([5]; 50 μM tail vein): 26.19 ± 0.38
T/C (%) ([5]; 50 μM tail vein): 70.06%
Tumor inhibition rate (%) ([5]; 50 μM tail vein): 21.21%
Tumor weight ([5]; 50 μM tail vein): 2.61 ± 0.38
body weights of mice [6]: basically maintained in the tolerable range of animal toxicity and side-effects
body weights of mice [7]: basically maintained in the tolerable range of animal toxicity and side-effects
